Columns and labels:
TbPFK = target: T1, TbPFK (Trypanosoma brucei brucei, UniProt O15648); experiment: Surface plasmon resonance (SPR); type: binding
T1 construct: made in house; host or cells: Escherichia coli C41 (pET28a, codon optimised gene)
T1 sequence (O15648 1-487): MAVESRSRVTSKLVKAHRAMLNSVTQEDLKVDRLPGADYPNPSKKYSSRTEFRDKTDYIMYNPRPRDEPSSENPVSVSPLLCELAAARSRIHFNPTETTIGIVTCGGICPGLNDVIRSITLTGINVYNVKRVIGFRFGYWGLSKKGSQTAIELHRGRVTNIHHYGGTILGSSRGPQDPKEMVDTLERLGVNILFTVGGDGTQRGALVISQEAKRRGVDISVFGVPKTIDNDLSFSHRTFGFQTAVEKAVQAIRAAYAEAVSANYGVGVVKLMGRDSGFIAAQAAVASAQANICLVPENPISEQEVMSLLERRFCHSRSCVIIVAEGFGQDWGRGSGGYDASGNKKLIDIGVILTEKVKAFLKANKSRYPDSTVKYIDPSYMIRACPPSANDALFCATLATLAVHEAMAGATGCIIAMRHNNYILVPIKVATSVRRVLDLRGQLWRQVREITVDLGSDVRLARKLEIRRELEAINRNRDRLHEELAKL
Procedure: SPR measurements were performed using a BIAcore T200 instrument (GE Healthcare). Active N-terminally His6-tagged TbPFK surfaces were generated using a His-tag capture and coupling onto Ni^2+‐nitrilotriacetic acid sensor chips. Following Ni^2+ priming (30 s injection of 500 μM NiCl2 at 5 μl min^−1), dextran surface carboxylate groups were minimally activated by an injection of 0.2 M EDC; 50 mM NHS at 5 μl min^−1 for 240 s. TbPFK (at concentrations between 10 and 400 nM), in 10 mM NaH2PO4, pH 7.5; 150 mM NaCl; 50 μM EDTA; 0.05% surfactant p20, was captured via the hexa-His-tag and simultaneously covalently stabilised to between 1500 RU and 3100 RU, by varying the contact time. Immediately following the capture/stabilisation a single 15 s injection of 350 mM EDTA and 50 mM imidazole in 10 mM NaH2PO4, pH 7.5; 150 mM NaCl; 50 mM EDTA; 0.05% surfactant p20, at 30 μl min^−1, was used to remove non-covalently bound protein, followed by a 180 s injection of 1 M H2N(CH2)2OH, pH 8.5 at 5 μl min^−1.
Active N-terminally His6-tagged TbPFK surfaces were generated using a His-tag capture and coupling method described previously (2). The surface density on the SPR chip = 1500 RU. A 1:1 binding model has been fitted to each sensorgram trace (black). All measurements were at 25 °C. […] Source data are provided as a Source Data file.

CYP2D6 = target: T2, CYP2D6 (Homo sapiens, UniProt P10635); experiment: Inhibition of CYP2D6; type: in vitro ADME; details: CYP450 isoform inhibition kit (BD Biosciences), probe AMMC
T2 construct: purchased BD Biosciences
T2 sequence (P10635 whole entry, canonical isoform): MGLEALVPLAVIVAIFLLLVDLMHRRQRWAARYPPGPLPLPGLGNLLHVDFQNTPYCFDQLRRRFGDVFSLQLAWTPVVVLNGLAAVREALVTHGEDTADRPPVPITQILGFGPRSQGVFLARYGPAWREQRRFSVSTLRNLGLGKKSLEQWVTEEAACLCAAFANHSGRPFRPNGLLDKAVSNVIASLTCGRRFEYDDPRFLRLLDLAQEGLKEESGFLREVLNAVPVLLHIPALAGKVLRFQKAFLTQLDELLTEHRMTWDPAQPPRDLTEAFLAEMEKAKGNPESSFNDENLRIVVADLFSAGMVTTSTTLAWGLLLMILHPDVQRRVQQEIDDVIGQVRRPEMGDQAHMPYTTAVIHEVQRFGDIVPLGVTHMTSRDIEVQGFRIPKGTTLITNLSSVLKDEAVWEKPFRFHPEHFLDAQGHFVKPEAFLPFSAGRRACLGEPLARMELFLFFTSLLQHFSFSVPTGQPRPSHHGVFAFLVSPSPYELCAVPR
Procedure: A HepG2 cytotoxicity assay was used to determine a cellular selectivity index. HepG2 cells were seeded into 96-well plates in EMEM medium. Compounds were assessed for their effect upon cellular viability (Supplementary Methods 5.1). Inhibition of CYP450 was determined using kits from BD Biosciences (Supplementary Methods 5.2). Metabolic stability was determined using mouse […] tested at a single concentration of 5 µM. Plasma protein binding was determined using mouse and human plasma at a single concentration of 10 µM (Supplementary Methods 5.4). All PK studies in mice were carried out by Pharmidex (Supplementary Methods 6.1).
The compounds were investigated for their inhibitory effect on cytochrome P450 (CYP450) activity using five CYP450 isoforms (with fluorescent substrates in brackets): 3A4 (two substrates, BFC and DBF), 2D6 (AMMC), 2C9 (MFC), 2C19 (CEC) and 1A2 (CEC). Kits from BD Biosciences were used along with the method described by the manufacturer. […] Fluorescence was measured using a SpectraMax M5 plate reader.

[1] = Experimentally determined pKa and logP (Pharmorphix); type: physicochemical
Procedure: pKa and […] values for selected CTCB compounds were determined experimentally by the company Pharmorphix (www.matthey.com) and calculated pKas were determined using ChemAxon.software (https://chemaxon.com).

CN(C)CCn1ccc2c(ccn2Cc2ccc(Cl)c(Cl)c2)c1=O [CTCB-405, 1-[(3,4-Dichlorophenyl)methyl]-5-[2-(dimethylamino)ethyl] pyrrolo[3,2-c]pyridin-4-one]
koff (TbPFK): 0.079 s⁻¹
kon (TbPFK): 960000 M⁻¹ s⁻¹
Kd (TbPFK; 25 °C): 82 nM
inhibition at 10 µM (CYP2D6): 60%
logP ([1]; read-out: Measured logP): 3.29
pKa ([1]; read-out: Measured pKa): 8.09

— publication PMC7887271, “Fast acting allosteric phosphofructokinase inhibitors block trypanosome glycolysis and cure acute African trypanosomiasis in mice” (Nature Communications, 2021)
